Source: article PMC9532951, “Identification and characterization of a novel SNAT2 (SLC38A2) inhibitor reveals synergy with glucose transport inhibition in cancer cells” (Frontiers in Pharmacology, 2022)
“And” between values parts separate entries of the source, which are not always exact repeats. Identical values can stand only once.

What was measured:
Type in all cases: cell-based, human
SNAT1/2 = assay: [14C]glutamine uptake in HCC1806 cells
Description: (§1) Functional characterisation of plasma membrane transporters in human cancer cells was determined at 37°C using an array of radiolabelled amino acid substrates. Modified Hanks HEPES-buffered salts solution (mHBSS; 137 mM NaCl; 5.4 mM KCl; 2.7 mM K2HPO4; 1 mM CaCl2; 0.5 mM MgCl2; 0.44 mM KH2PO4; 0.4 mM MgSO4; 5 mM D-glucose; 5 mM HEPES; pH 7.4) was used to wash and incubate cells where sodium dependent transport was measured, while N-methyl-D-glucamine (NMDG) and potassium salts substituted sodium in NMDG mHBSS to measure sodium independent uptake. For the assay, cells were seeded in 35 mm dishes and, once confluent, were washed thrice with warm mHBSS solution and incubated with mHBSS containing an 100 µM amino acid at a final specific activity of ≥2000 cpm/nmol (U-[^14C]amino acids were from PerkinElmer). After 6 min, cells were washed thrice with ice-cold mHBSS, lysed with 500 µl of 0.1 M HCl, detached with a cell scraper and triturated. A 400 µl aliquot was used for scintillation counting, while the remainder was saved for protein mass quantification by Bradford assay. Transport rates were normalised to the protein content of the culture dish.

SNAT2 = assay: Radiolabelled proline uptake in amino acid depleted SKOV3 cells
Description: as §1
IC50 were calculated using equation y=ymax(1−x/x+IC50)

HCC1806 cells = assay: [14C]alanine uptake in non-depleted HCC1806 cells; details: amino acid replete HCC1806 cells
Description: as §1

SNAT1 and SNAT2 = assay: FMP assay in HCC1806 clones C10 (ASCT2ko) and D126 (ASCT2ko, SNAT2ko)
Description: To delete the SNAT2 (SLC38A2) gene in modified HCC1806 cells (clone C10 nullizygous for ASCT2 ([Broer et al., 2019])), the GeneArt CRISPR Nuclease Vector with OFP Reporter Kit (Invitrogen; A21174) was employed and complementary 19–20 bp long single-stranded oligonucleotides with overhangs were designed to produce a guide RNA (gRNA) for the Cas9 nuclease that would target exon 7 of the SNAT2 gene. Colonies were analysed by sequencing using the U6 primer included in the GeneArt CRISPR Nuclease Vector with OFP Reporter kit. Plasmids that contained the correct CRISPR nuclease construct were then used to transfect HCC1806 cells with Lipofectamine 2000 (Invitrogen). Prior to transfection, medium was replaced with 2 ml of fresh DMEM/F-12 (supplemented with 10% heat-inactivated FBS and 2 mM glutamine). Plasmid DNA (4 µg) and 10 µL of Lipofectamine 2000 were incubated separately for 5 min at room temperature in 500 µl of Opti-MEM (Invitrogen) before being combined and incubated for a further 30 min at room temperature. The DNA-Lipofectamine complex was then added to the cells in a dropwise manner and allowed to be absorbed over 6 h at 37°C, after which the medium was renewed with fresh DMEM/F-12. Cells were checked for red fluorescence using an EVOS FL cell imaging system (Thermo Fisher Scientific) 48–72 h post transfection. Subsequently, cells were detached using 0.25% Trypsin EDTA. After harvesting and washing thrice with PBS (pH 7.4), cells were resuspended in PBS (pH 7.4) supplemented with 5 mM glucose and 1% dialysed and heat inactivated FBS and passed through a 100 μm cell strainer. The cell filtrate was then pelleted once more and resuspended in the same buffer. Cells were sorted using an ARIA II FACS machine and individually dispensed into the wells of a 96-well plate. Nullizygous clones were identified using a series of assays including the FLIPR membrane potential assay, western blotting and sequencing.
The FLIPR Membrane Potential Blue Explorer Kit (Molecular Devices) was used to characterise inhibitors and to optimise a high-throughput compound screen. Cells were seeded at approximately 60,000 cells/well on a 96-well plate and allowed to attach and grow overnight in a cell incubator. The next day, the cells were washed once with mHBSS and incubated in a starvation medium (composed of mHBSS with 1% dialysed heat-inactivated FBS, 23 mM NaHCO3, 10 U/ml penicillin and 10 μg/ml streptomycin) for 24 h. Cells were then washed once with mHBSS and incubated with 50 µl of the mHBSS-resuspended FMP assay dye and 50 µl of mHBSS (with or without inhibitors) and incubated at room temperature for 30 min. The plate was then placed in an EnSpire Multimode plate reader (PerkinElmer) and four sequential measurements of fluorescence were recorded as a baseline reference. Immediately after the baseline measurements were taken, 25 µl of 5 mM glutamine dissolved in mHBSS was injected into each well and the plate was shaken orbitally for 5 s before a series of consecutive fluorescence measurements were taken. The excitation wavelength was set to 530 nm and the emission was detected at 565 nm. The Δ fluorescent signal reported in the figures was taken 30 s after substrate addition. After the assay was complete, the liquid content of the plate was carefully removed, and the cell monolayer inspected to ensure it remained intact throughout the course of the assay.

Question: How did the “inhibition of 100 µM glutamine uptake” value (SNAT1/2; 50 µM inhibitor, HCC1806 after 24 h amino acid depletion) turn out when `Cc1ccc(S(=O)(=O)N(C)c2ccsc2C(=O)NCc2ccccc2C(F)(F)F)cc1` [Compound 57_E, 3-(N-methyl (4-methylphenyl)sulfonamido)-N-(2-trifluoromethylbenzyl)thiophene-2-carboxamide] was run?
Answer: inhibited a significant fraction of the MeAIB-sensitive component of glutamine uptake

Question: What about the “Glutamine uptake (nmol / mg protein x 6 min)” value (SNAT1/2; Figure 3D, replicates 1-3) of the same compound?
Answer: 46.6677 nmol / mg protein x 6 min and 48.4796 nmol / mg protein x 6 min and 48.0528 nmol / mg protein x 6 min

Question: And the “inhibition of proline uptake” value (SNAT2; 30 µM, Figure 4A)?
Answer: inhibition equivalent to betaine

Question: And the “Proline uptake (nmol / mg protein x 6 min)” value (SNAT2; Figure 4A, screening compounds, replicates 1-3)?
Answer: 12.1271 nmol / mg protein x 6 min and 12.3527 nmol / mg protein x 6 min and 11.9613 nmol / mg protein x 6 min

Question: What about the “Proline uptake (nmol / mg protein x 6 min)” value (SNAT2; Figure 5B, 0.03 uM) of the same compound?
Answer: 13.4934 nmol / mg protein x 6 min and 12.6179 nmol / mg protein x 6 min and 11.806 nmol / mg protein x 6 min and 12.3756 nmol / mg protein x 6 min

Question: What about the “Proline uptake (nmol / mg protein x 6 min)” value (SNAT2; Figure 5B, 0.1 uM) of the same compound?
Answer: 11.4589 nmol / mg protein x 6 min and 11.5974 nmol / mg protein x 6 min and 12.2114 nmol / mg protein x 6 min and 11.4952 nmol / mg protein x 6 min

Question: What about the “Proline uptake (nmol / mg protein x 6 min)” value (SNAT2; Figure 5B, 0.3 uM) of the same compound?
Answer: 9.658 nmol / mg protein x 6 min and 10.0504 nmol / mg protein x 6 min and 12.5202 nmol / mg protein x 6 min and 8.873 nmol / mg protein x 6 min

Question: What about the “Proline uptake (nmol / mg protein x 6 min)” value (SNAT2; Figure 5B, 1 uM) of the same compound?
Answer: 8.923 nmol / mg protein x 6 min and 10.4357 nmol / mg protein x 6 min and 8.533 nmol / mg protein x 6 min

Question: And the “Proline uptake (nmol / mg protein x 6 min)” value (SNAT2; Figure 5B, 3 uM)?
Answer: 6.737 nmol / mg protein x 6 min and 7.879 nmol / mg protein x 6 min and 6.95 nmol / mg protein x 6 min and 7.052 nmol / mg protein x 6 min

Question: What about the “Proline uptake (nmol / mg protein x 6 min)” value (SNAT2; Figure 5B, 10 uM) of the same compound?
Answer: 6.707 nmol / mg protein x 6 min and 7.214 nmol / mg protein x 6 min and 6.31 nmol / mg protein x 6 min and 7.23 nmol / mg protein x 6 min

Question: What about the “inhibition of [14C]alanine uptake” value (HCC1806 cells) of the same compound?
Answer: about 10%

Question: How did the “block of glutamine (1 mM) FMP signal” value (SNAT1 and SNAT2; C10 cells) turn out when `N[C@@H](CCC(=O)NO)C(=O)O` [GHX, L-glutamic acid γ-monohydroxamate] was run?
Answer: fully blocked

Question: And the FMP fluorescence (SNAT1 and SNAT2; C10 cells, time 0, replicates 1-10)?
Answer: 22566 and 24924 and 25754 and 31415 and 31062 and 25958 and 24037 and 24199 and 31861 and 22458

Question: What about the FMP fluorescence (SNAT1 and SNAT2; C10 cells, time 30, replicates 1-10) of the same compound?
Answer: 22979 and 25257 and 24877 and 31065 and 30653 and 25037 and 22964 and 23247 and 31019 and 21524

Question: And the FMP fluorescence (SNAT1 and SNAT2; C10 cells, time 40, replicates 1-10)?
Answer: 22836 and 25183 and 25086 and 31077 and 30677 and 25349 and 23314 and 23279 and 31141 and 21715

Question: What about the FMP fluorescence (SNAT1 and SNAT2; C10 cells, time 50, replicates 1-10) of the same compound?
Answer: 22729 and 25095 and 24771 and 30889 and 30642 and 25022 and 23105 and 23276 and 31320 and 21555

Question: And the FMP fluorescence (SNAT1 and SNAT2; C10 cells, time 60, replicates 1-10)?
Answer: 22771 and 25085 and 24871 and 30919 and 30705 and 25319 and 23018 and 23144 and 31224 and 21790

Question: And the FMP fluorescence (SNAT1 and SNAT2; C10 cells, time 70, replicates 1-10)?
Answer: 22546 and 24933 and 24936 and 30890 and 30628 and 25268 and 22856 and 23122 and 31403 and 21489

Question: And the FMP fluorescence (SNAT1 and SNAT2; C10 cells, time 80, replicates 1-10)?
Answer: 22447 and 25159 and 24725 and 30733 and 30614 and 25267 and 22687 and 23011 and 31397 and 21490

Question: And the FMP fluorescence (SNAT1 and SNAT2; C10 cells, time 90, replicates 1-10)?
Answer: 22259 and 25131 and 24741 and 30924 and 30357 and 25175 and 22779 and 23104 and 30871 and 21284

Question: And the FMP fluorescence (SNAT1 and SNAT2; C10 cells, time -10, replicates 1-10)?
Answer: 23300 and 25374 and 26077 and 32072 and 31514 and 26200 and 24526 and 24442 and 32334 and 22554

Question: And the FMP fluorescence (SNAT1 and SNAT2; C10 cells, time -20, replicates 1-10)?
Answer: 23913 and 26637 and 26782 and 32769 and 33018 and 26873 and 25394 and 25312 and 33318 and 23095

Question: Which results are given for `C[N+](C)(C)CC(=O)O` [Betaine, betaine]?
Answer: Glutamine uptake (SNAT1/2; AA+ (growth medium), 100 µM glutamine, replicates 1-3): 37.8707 nmol / mg protein x 6 min and 45.7014 nmol / mg protein x 6 min and 38.6268 nmol / mg protein x 6 min; Glutamine uptake (SNAT1/2; AA- (starvation medium 24 h), 100 µM glutamine, replicates 1-3): 13.5306 nmol / mg protein x 6 min and 16.7838 nmol / mg protein x 6 min and 15.0446 nmol / mg protein x 6 min; reduction of glutamine uptake (SNAT1/2; amino acid depleted HCC1806 cells (24 h), 100 µM glutamine): 46%; inhibition of proline uptake (SNAT2; 10 mM, 100 µM proline, Figure 4A (24 h starvation)): 30%; inhibition of proline uptake (SNAT2; 10 mM, Figure 4D (15 h starvation)): 60%; Proline uptake (nmol / mg protein x 6 min) (SNAT2; Figure 4A, 10mM, replicates 1-3): 14.3516 nmol / mg protein x 6 min and 14.2805 nmol / mg protein x 6 min and 13.5695 nmol / mg protein x 6 min; Proline uptake (nmol / mg protein x 6 min) (SNAT2; Figure 5B, reference inhibitors, replicates): 7.636 nmol / mg protein x 6 min and 7.165 nmol / mg protein x 6 min and 7.435 nmol / mg protein x 6 min and 7.421 nmol / mg protein x 6 min; inhibition of [14C]alanine uptake (HCC1806 cells): about 10%

Question: How did the “FMP signal in D126 cells (ASCT2ko, SNAT2ko) compared to C10” value (SNAT1 and SNAT2; MeAIB 10 mM, glutamine 1 mM) turn out when `NC(=O)CC[C@H](N)C(=O)O` [Glutamine, glutamine] was run?
Answer: 42%
